Measurements published in paper PMC5814754, “Quantitative, Wide-Spectrum Kinase Profiling in Live Cells for Assessing the Effect of Cellular ATP on Target Engagement” (Cell Chemical Biology, 2018).
Where two headings read alike, the source gives them in different places.

Columns and labels:
LCK = LCK (Homo sapiens, UniProt P06239); experiment: NanoBRET target engagement, LCK-NanoLuc, HEK293 cells (live, ATP depleted, permeabilized); format: binding; conditions: LCK-NanoLuc, read-out: Tracer Affinity EC50
[1] = target: full-length kinase/Nluc fusion proteins (Homo sapiens, UniProt O15146); experiment: Apparent affinity (EC50) of energy transfer probes by titration onto live HEK293 cells expressing kinase/Nluc fusions (Table S1); format: binding; conditions: MUSK, Nluc C; read-out: Probe EC50
[2] = target: full-length kinase/Nluc fusion proteins (Homo sapiens, UniProt O75460); experiment: as above; format: binding; conditions: ERN1, Nluc C; read-out: Probe EC50
[3] = target: full-length kinase/Nluc fusion proteins (Homo sapiens, UniProt O95835); experiment: as above; format: binding; conditions: LATS1, Nluc C; read-out: Probe EC50
[4] = target: full-length kinase/Nluc fusion proteins (Homo sapiens, UniProt O96013); experiment: as above; format: binding; conditions: PAK4, Nluc C; read-out: Probe EC50
[5] = target: full-length kinase/Nluc fusion proteins (Homo sapiens, UniProt P11362); experiment: as above; format: binding; conditions: FGFR1, Nluc C; read-out: Probe EC50
[6] = target: full-length kinase/Nluc fusion proteins (Homo sapiens, UniProt P36896); experiment: as above; format: binding; conditions: ACVR1B, Nluc C; read-out: Probe EC50
[7] = target: full-length kinase/Nluc fusion proteins (Homo sapiens, UniProt P80192); experiment: as above; format: binding; conditions: MAP3K9, Nluc N; read-out: Probe EC50
[8] = target: full-length kinase/Nluc fusion proteins (Homo sapiens, UniProt Q15349); experiment: as above; format: binding; conditions: RPS6KA2 (NP_001305865), Nluc orientation N; read-out: Probe EC50
[9] = target: full-length kinase/Nluc fusion proteins (Homo sapiens, UniProt Q16816); experiment: as above; format: binding; conditions: PHKG1, Nluc N; read-out: Probe EC50
[10] = target: full-length kinase/Nluc fusion proteins (Homo sapiens, UniProt Q8WU08); experiment: as above; format: binding; conditions: STK32A (NP_001106195), Nluc orientation N; read-out: Probe EC50
[11] = target: full-length kinase/Nluc fusion proteins (Homo sapiens, UniProt Q9BVS4); experiment: as above; format: binding; conditions: RIOK2, Nluc N; read-out: Probe EC50
[12] = target: full-length kinase/Nluc fusion proteins (Homo sapiens, UniProt Q9NSY1); experiment: as above; format: binding; conditions: BMP2K, Nluc N; read-out: Probe EC50
[13] = target: full-length kinase/Nluc fusion proteins (Homo sapiens, UniProt Q9UF33); experiment: as above; format: binding; conditions: EPHA6, Nluc C; read-out: Probe EC50
[14] = target: full-length kinase/Nluc fusion proteins (Homo sapiens, UniProt Q9Y4K4); experiment: as above; format: binding; conditions: MAP4K5, Nluc C; read-out: Probe EC50
178 full-length kinases [15] = target: 178 full-length kinases (Homo sapiens, UniProt O76039); experiment: NanoBRET single-dose fractional occupancy profiling of kinase/Nluc library in live HEK293 cells (Table S1); format: binding; set-up: Occupancy, % Replicate 1 / Occupancy, % Replicate 2: unit of the concentration uncertain; conditions: CDKL5, Nluc N, probe 5 at 1 (unit uncertain)
178 full-length kinases [16] = target: 178 full-length kinases (Homo sapiens, UniProt P11309); experiment: as above; format: binding; set-up: Occupancy, % Replicate 1 / Occupancy, % Replicate 2: unit of the concentration uncertain; conditions: PIM1, Nluc C, probe 5 at 1 (unit uncertain)
178 full-length kinases [17] = target: 178 full-length kinases (Homo sapiens, UniProt Q8NG66); experiment: as above; format: binding; set-up: Occupancy, % Replicate 1 / Occupancy, % Replicate 2: unit of the concentration uncertain; conditions: NEK11, Nluc N, probe 5 at 1 (unit uncertain)
178 full-length kinases [18] = target: 178 full-length kinases (Homo sapiens, UniProt Q96PY6); experiment: as above; format: binding; set-up: Occupancy, % Replicate 1 / Occupancy, % Replicate 2: unit of the concentration uncertain; conditions: NEK1, Nluc N, probe 5 at 1 (unit uncertain)
178 full-length kinases [19] = target: 178 full-length kinases (Homo sapiens, UniProt Q9P286); experiment: as above; format: binding; set-up: Occupancy, % Replicate 1 / Occupancy, % Replicate 2: unit of the concentration uncertain; conditions: PAK7, Nluc C, probe 5 at 1 (unit uncertain)
ABL = conditions: read-out: Crizotinib IC50 Biochemical; ref Cui et al., 2011; cited from earlier work
INSR = conditions: read-out: Crizotinib IC50 Biochemical; ref Cui et al., 2011; cited from earlier work
AXL = conditions: read-out: Live Cell IC50 Phospho Elisa; ref Cui et al., 2011; cited from earlier work
TRKB = conditions: read-out: Live Cell IC50 Phospho Elisa; ref Cui et al., 2011; cited from earlier work
[20] = target: full-length kinase/Nluc fusion proteins (Homo sapiens, UniProt O14976); experiment: Apparent affinity (EC50) of energy transfer probes by titration onto live HEK293 cells expressing kinase/Nluc fusions (Table S1); format: binding; conditions: GAK, Nluc N; read-out: Probe EC50
[21] = target: full-length kinase/Nluc fusion proteins (Homo sapiens, UniProt P07333); experiment: as above; format: binding; conditions: CSF1R, Nluc C; read-out: Probe EC50
[22] = target: full-length kinase/Nluc fusion proteins (Homo sapiens, UniProt P42685); experiment: as above; format: binding; conditions: FRK, Nluc C; read-out: Probe EC50
[23] = target: full-length kinase/Nluc fusion proteins (Homo sapiens, UniProt P51451); experiment: as above; format: binding; conditions: BLK, Nluc N; read-out: Probe EC50
[24] = target: full-length kinase/Nluc fusion proteins (Homo sapiens, UniProt P54764); experiment: as above; format: binding; conditions: EPHA4, Nluc C; read-out: Probe EC50
[25] = target: full-length kinase/Nluc fusion proteins (Homo sapiens, UniProt Q9Y2K2); experiment: as above; format: binding; conditions: SIK3 (NP_079440), Nluc orientation N; read-out: Probe EC50

LCK, sequence (P06239 whole entry, the tested form may be a part): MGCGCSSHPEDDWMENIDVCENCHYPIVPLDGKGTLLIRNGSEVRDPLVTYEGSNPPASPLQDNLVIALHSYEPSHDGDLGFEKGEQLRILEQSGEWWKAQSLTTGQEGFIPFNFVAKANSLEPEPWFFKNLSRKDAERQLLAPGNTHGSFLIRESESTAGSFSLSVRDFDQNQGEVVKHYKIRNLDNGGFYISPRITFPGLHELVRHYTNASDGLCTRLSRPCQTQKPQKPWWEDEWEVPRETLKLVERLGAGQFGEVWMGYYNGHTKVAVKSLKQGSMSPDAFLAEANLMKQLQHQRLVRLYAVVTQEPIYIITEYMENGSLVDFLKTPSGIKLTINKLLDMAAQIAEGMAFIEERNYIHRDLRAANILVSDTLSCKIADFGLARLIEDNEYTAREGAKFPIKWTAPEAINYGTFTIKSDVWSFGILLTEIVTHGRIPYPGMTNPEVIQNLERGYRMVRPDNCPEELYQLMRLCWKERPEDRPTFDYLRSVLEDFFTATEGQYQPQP
178 full-length kinases (Homo sapiens, UniProt O76039), sequence (O76039 whole entry): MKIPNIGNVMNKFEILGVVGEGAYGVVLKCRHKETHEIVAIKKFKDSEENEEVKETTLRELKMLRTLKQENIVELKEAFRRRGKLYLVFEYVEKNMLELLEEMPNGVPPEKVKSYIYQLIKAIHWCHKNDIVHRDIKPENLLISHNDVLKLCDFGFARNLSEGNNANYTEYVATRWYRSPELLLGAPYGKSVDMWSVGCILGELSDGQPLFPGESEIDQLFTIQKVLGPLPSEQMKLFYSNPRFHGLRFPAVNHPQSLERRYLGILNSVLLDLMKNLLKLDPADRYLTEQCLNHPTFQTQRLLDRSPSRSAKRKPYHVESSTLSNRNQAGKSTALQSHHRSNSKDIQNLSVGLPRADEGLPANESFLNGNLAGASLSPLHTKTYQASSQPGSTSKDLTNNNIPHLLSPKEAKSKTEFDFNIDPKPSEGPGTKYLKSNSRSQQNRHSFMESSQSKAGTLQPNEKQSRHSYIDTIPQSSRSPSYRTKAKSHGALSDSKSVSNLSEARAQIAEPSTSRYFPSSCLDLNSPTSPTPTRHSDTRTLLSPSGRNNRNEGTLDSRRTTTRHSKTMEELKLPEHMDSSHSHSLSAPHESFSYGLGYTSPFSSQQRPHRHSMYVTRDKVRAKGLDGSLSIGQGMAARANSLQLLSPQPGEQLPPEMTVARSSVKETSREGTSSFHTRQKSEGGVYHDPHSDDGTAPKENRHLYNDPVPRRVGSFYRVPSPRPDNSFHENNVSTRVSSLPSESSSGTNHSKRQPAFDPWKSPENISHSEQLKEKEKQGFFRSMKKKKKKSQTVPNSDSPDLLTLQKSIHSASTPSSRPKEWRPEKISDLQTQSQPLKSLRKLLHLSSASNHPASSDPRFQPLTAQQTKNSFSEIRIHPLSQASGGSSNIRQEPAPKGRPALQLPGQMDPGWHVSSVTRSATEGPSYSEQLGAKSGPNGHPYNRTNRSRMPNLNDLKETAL
178 full-length kinases (Homo sapiens, UniProt Q9P286), sequence (Q9P286 whole entry): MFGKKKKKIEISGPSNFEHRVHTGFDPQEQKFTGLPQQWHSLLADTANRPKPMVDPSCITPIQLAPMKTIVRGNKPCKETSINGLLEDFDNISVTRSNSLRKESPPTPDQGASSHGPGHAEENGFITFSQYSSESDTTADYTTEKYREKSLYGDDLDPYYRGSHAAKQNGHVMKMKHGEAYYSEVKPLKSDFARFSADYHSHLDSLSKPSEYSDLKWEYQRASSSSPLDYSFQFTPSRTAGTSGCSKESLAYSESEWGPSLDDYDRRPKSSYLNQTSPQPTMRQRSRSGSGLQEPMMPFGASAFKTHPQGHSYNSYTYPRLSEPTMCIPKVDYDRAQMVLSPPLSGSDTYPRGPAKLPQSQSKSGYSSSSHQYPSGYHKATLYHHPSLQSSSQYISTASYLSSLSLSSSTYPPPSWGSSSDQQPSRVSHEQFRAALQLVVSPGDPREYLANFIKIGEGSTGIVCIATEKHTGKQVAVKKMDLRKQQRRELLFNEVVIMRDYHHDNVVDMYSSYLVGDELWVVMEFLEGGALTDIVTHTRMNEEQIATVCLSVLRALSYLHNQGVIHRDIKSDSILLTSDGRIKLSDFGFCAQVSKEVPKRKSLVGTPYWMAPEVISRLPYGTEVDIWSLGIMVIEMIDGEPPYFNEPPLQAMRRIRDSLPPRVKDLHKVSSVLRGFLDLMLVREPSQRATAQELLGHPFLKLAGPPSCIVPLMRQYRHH
full-length kinase/Nluc fusion proteins (Homo sapiens, UniProt O96013), sequence (O96013 whole entry, the tested form may be a part): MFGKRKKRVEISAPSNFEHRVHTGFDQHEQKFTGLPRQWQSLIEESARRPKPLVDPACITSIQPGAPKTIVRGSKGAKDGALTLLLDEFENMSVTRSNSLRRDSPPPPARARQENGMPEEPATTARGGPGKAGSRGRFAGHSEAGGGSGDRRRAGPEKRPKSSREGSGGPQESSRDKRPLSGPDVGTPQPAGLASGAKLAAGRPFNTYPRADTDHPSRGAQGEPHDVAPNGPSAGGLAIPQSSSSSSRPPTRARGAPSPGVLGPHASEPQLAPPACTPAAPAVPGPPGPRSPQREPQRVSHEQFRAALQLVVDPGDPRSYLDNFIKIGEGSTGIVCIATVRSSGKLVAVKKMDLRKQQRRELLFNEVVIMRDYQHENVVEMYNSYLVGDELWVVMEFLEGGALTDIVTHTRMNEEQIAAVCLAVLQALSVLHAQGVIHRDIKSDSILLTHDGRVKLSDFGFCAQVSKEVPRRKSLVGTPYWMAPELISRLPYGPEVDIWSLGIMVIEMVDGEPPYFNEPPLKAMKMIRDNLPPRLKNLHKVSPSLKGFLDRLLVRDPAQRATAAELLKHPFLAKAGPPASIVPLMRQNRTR
full-length kinase/Nluc fusion proteins (Homo sapiens, UniProt P42685), sequence (P42685 whole entry, the tested form may be a part): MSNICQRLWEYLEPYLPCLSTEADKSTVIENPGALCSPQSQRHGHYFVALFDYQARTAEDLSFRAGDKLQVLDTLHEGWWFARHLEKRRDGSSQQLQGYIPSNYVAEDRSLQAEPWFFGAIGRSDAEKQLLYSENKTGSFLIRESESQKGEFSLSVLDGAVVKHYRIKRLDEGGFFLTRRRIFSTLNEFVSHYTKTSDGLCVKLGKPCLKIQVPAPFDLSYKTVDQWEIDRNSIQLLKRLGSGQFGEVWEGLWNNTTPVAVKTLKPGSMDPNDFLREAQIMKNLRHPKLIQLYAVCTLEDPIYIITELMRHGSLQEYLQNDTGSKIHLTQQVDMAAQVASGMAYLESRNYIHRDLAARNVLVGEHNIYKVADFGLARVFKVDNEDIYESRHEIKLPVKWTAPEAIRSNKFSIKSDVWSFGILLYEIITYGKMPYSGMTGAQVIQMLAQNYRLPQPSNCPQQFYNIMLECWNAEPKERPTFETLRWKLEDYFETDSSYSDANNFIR
full-length kinase/Nluc fusion proteins (Homo sapiens, UniProt Q8WU08), sequence (Q8WU08 whole entry, the tested form may be a part): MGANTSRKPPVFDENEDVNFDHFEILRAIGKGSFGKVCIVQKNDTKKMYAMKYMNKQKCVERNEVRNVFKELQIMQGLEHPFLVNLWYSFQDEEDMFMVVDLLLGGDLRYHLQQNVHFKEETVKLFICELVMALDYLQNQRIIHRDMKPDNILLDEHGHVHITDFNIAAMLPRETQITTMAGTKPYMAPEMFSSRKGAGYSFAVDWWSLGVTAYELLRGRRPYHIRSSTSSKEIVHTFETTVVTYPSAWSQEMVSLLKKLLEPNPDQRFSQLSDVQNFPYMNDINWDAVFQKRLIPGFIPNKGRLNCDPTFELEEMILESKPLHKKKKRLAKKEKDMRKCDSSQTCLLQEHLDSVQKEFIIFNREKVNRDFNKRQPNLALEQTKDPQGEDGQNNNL
full-length kinase/Nluc fusion proteins (Homo sapiens, UniProt P80192), sequence (P80192 whole entry, the tested form may be a part): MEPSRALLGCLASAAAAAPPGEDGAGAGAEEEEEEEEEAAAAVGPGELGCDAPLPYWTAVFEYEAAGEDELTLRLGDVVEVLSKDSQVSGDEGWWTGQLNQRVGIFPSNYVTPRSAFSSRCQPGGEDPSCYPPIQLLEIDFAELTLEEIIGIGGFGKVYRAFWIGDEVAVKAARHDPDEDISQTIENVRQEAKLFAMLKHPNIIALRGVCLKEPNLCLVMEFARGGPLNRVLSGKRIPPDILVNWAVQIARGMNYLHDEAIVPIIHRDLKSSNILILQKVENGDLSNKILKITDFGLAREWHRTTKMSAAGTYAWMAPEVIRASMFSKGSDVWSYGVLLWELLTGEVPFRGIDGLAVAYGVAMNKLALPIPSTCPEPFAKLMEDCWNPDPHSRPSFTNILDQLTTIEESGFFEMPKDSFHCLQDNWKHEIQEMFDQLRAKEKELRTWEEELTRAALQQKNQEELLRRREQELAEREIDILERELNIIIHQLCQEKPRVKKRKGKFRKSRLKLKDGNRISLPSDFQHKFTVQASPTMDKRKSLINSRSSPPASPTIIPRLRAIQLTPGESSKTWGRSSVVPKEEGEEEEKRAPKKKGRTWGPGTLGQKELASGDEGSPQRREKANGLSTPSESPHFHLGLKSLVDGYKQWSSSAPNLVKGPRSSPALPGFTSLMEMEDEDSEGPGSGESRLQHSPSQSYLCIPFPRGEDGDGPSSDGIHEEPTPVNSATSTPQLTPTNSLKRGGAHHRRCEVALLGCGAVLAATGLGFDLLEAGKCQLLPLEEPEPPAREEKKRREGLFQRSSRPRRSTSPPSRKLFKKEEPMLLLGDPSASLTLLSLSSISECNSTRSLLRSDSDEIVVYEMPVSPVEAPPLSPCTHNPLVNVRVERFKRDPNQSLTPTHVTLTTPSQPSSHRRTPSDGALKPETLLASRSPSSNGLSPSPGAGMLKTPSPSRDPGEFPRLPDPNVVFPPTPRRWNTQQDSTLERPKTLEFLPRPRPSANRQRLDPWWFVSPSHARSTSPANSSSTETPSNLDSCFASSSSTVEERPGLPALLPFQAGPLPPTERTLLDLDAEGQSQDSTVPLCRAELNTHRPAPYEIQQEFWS

In the case of `CNC(=O)c1ccccc1Nc1nc(Nc2ccc(N3CCN(C(=O)CCOCCOCCOCCOCCNC(=O)CCc4ccc5n4[B-](F)(F)[N+]4=C(c6ccc[nH]6)C=CC4=C5)CC3)cc2)ncc1Cl` [Energy Transfer Probe 5, 2-((2-((4-(4-(1-amino-3,6,9,12-tetraoxapentadecan-15-oyl)piperazin-1-yl)phenyl)amino)-5-chloropyrimidin-4-yl)amino)-N-methylbenzamide-NanoBRET 590], the EC50 (LCK; ATP Depleted) is reported as 370 ± 70 nM, the EC50 (LCK; Live) is reported as > 1000 nM and the EC50 (LCK; Permeabilized) is reported as 52 ± 3 nM. For the same molecule, the EC50 [1] was > 1000 nM, the EC50 [2] was > 1000 nM and the EC50 [3] was 600 nM. For the same molecule, the EC50 [4] was > 1000 nM, the EC50 [5] was 600 nM and the EC50 [6] was > 1000 nM. For the same molecule, the EC50 [7] was > 1000 nM, the EC50 [8] was 600 nM and the EC50 [9] was 400 nM. For the same molecule, the EC50 [10] was > 1000 nM, the EC50 [11] was > 1000 nM and the EC50 [12] was > 1000 nM. The EC50 [13] was > 1000 nM and the EC50 [14] was > 1000 nM.

In the case of `C[C@@H](Oc1cc(-c2cnn(C3CCNCC3)c2)cnc1N)c1c(Cl)ccc(F)c1Cl` [Crizotinib], the “Occupancy, % Replicate 1” value (178 full-length kinases [15]) is reported as “No Binding”, the “Occupancy, % Replicate 2” value (178 full-length kinases [15]) is reported as “No Binding” and the “Occupancy, % Replicate 1” value (178 full-length kinases [16]) is reported as “No Binding”. For the same molecule, the “Occupancy, % Replicate 2” value (178 full-length kinases [17]) was “No Binding”, the “Occupancy, % Replicate 2” value (178 full-length kinases [18]) was “No Binding” and the “Occupancy, % Replicate 1” value (178 full-length kinases [19]) was “No Binding”. For the same molecule, the “Occupancy, % Replicate 2” value (178 full-length kinases [19]) was “No Binding”, the IC50 (ABL) was […] and the IC50 (INSR) was […]. For the same molecule, the IC50 (AXL) was […] and the IC50 (TRKB) was […].

Work on `Cc1nc(Nc2ncc(C(=O)Nc3c(C)cccc3Cl)s2)cc(N2CCN(CCOCCNC(=O)CCc3ccc4n3[B-](F)(F)[N+]3=C(c5ccc[nH]5)C=CC3=C4)CC2)n1` [Energy Transfer Probe 6, 2-((6-(4-(2-(2-aminoethoxy)ethyl)piperazin-1-yl)-2-methylpyrimidin-4-yl)amino)-N-(2-chloro-6-methylphenyl)thiazole-5-carboxamide-NanoBRET 590] yielded an EC50 [20] of 500 nM, an EC50 [21] of 200 nM and an EC50 [22] of 400 nM. The EC50 [23] was 300 nM, the EC50 [24] was 40 nM and the EC50 [25] was > 1000 nM.
